Laboratory results published in US20230152325A1, “Active Alpha-5-Beta-1 Integrin As A Biomarker For Enhancing Tumor Treatment Efficacy” (Institute For Cancer Research d/b/a The Research Institute …, priority 2016, published 2023).

How the values were obtained:
[1] = system: naïve pancreatic fibroblasts cultured within D-ECM; experiment: ECM prompted myofibroblastic maintenance (α-SMA / F-actin immunofluorescence), PDAC model; type: cell-based, human; details: for D-ECM induced myofibroblastic phenotype (α-SMA expression / stress fiber localization), in words: naïve cells within D-ECM treated with the agent; for α-SMA expression, Median / α-SMA stress fiber localization, Median: normalized to untreated D-ECM = 1
Description: (§1) ECM prompted myofibroblastic maintenance. Human naïve or assorted murine fibroblasts were incubated for 45 minutes prior to overnight culturing within assorted ECMs, prepared as above, in the presence or absence of 50 μg/ml SNAKA51, 60 μg/m ALULA, 250 μg/m mAb16, or BMAS diluted as instructed by the manufacturer (Millipore, Temecula, Calif.), IgG control, DMSO or small molecule inhibitors FAK (PF573,228) and SRC family kinases (PP2). ECM-induced phenotypes were assessed via RT-qPCR, Western Blot or immunofluorescence.
(§2) Naïve/innate PDAC and RCC patient harvested fibroblasts were cultured overnight within normal (N-ECM) vs. desmoplastic (D-ECM or DECMs that were produced in the presence or absence of TGFβ1-receptor inhibition (D+TGFβi) or vehicle control (D+DMSO). Alternatively, naïve cells cultured within D-ECMs were treated with either TGFβ1-receptor inhibitor (TGFβ-i), vehicle (DMSO), functional blocking antibodies anti-αvβ5 integrin (alula, αvβ5-i), anti-α5β1 integrin (mAb16, α5β1-i), combinations of both functional blocking antibodies (β5-i+α5-i), functional stabilizing anti α5β1 integrin (SNAKA51; α5β1-act) or non-immunized isotypic antibodies (IgG). All samples were subjected to indirect immunofluorescent labeling of desmoplastic marker α-SMA and counterstained with fluorescently labeled phalloidin to detect actin stress fibers (F-actin) and determine the co-localization ratio. Monochromatic “heat map” images (see, FIG. 2A) represent α-SMA intensity values. A 255 tones intensity scale bar is shown to the right. A summary of all measured values is graphed in FIG. 2B. Additional monochromatic images indicative of double labeled staining for α-SMA and F-actin are in FIG. 2C while levels of total α-SMA localized at corresponding stress fibers are plotted in FIG. 2D. Untreated D-ECM conditions were included in all experiments summarized in this figure and serve as normalization (1 arbitrary unit; a.u.) controls. Matching values including statistical significances are listed in accompanying Table 1. All scale bars represent 50 μm. TGFβ activity was needed to maintain functional D-ECM production but was dispensable when testing D-ECM induced responses, while the later were obstructed by αvβ5 integrin inhibition or active α5β1 integrin stabilization.

[2] = system: naïve renal fibroblasts cultured within D-ECM; experiment: ECM prompted myofibroblastic maintenance (α-SMA / F-actin immunofluorescence), RCC model; type: cell-based, human; details: for D-ECM induced myofibroblastic phenotype (α-SMA expression / stress fiber localization), in words: naïve cells within D-ECM treated with the agent; for α-SMA expression, Median / α-SMA stress fiber localization, Median: normalized to untreated D-ECM = 1
Description: as §1, §2

[3] = system: PDAC desmoplastic fibroblasts (D-ECM production); experiment: ECM fiber orientation analysis of D-ECM produced by PDAC-associated fibroblasts; type: cell-based, human
Description: Un-extracted 3D cultures were either processed for phenotypic characterization, ECM alignment measurements, or decellularized to assess maintenance of myofibroblastic phenotype. ECM fiber orientation analysis. Fibronectin channel monochromatic images were analyzed via Imager OrientationJ plugin. Numerical outputs were normalized by setting mode angles to 0° and correcting angle spreads to fluctuate between −90° and 90°. Angle spreads for each experimental condition, corresponding to a minimum of three experimental repetitions and five image acquisitions per condition were plotted and their standard deviations calculated. The percentage of fibers oriented between −15° and 15° was determined for each normalized image-obtained data. FIGS. 1A through 1E show desmoplastic (D)-ECM remodeling by TGFβ-blockage bestows normal (N)-ECM-like phenotypes. Fibroblasts were isolated from pancreatic ductal adenocarcinoma (PDAC) and renal cell carcinoma (RCC) surgical samples and their ECM producing phenotypes were assessed prior to ECM decellularization via fibroblastic extraction. […] Complementary low/heterogeneous vs. high/organized α-SMA levels, with heterogeneous/round vs. elongated/spindled cell nuclei, and disorganized/woven vs. parallel/aligned ECM fibers are evident in the representative images. […] Scale bars represent 50 μm.

[4] = system: RCC desmoplastic fibroblasts (D-ECM production); experiment: ECM fiber orientation analysis of D-ECM produced by RCC-associated fibroblasts; type: cell-based, human
Excerpt: (§3) Preparation of fibroblasts-derived 3D ECMs. Extracellular matrices (ECMs) were obtained in the presence or absence of TGFβ1R small molecule inhibitor SB431542, DMSO, conformation-dependent anti-active α5 integrin functional antibody (SNAKA51), functional-blocking anti αvβ5 integrin (ALULA), or species matched non-immunized isotypic antibodies. Un-extracted 3D cultures were either processed for phenotypic characterization, ECM alignment measurements, or decellularized to assess maintenance of myofibroblastic phenotype.
ECM fiber orientation analysis. Fibronectin channel monochromatic images were analyzed via Imager OrientationJ plugin. […] Angle spreads for each experimental condition, corresponding to a minimum of three experimental repetitions and five image acquisitions per condition were plotted and their standard deviations calculated. The percentage of fibers oriented between −15° and 15° was determined for each normalized image-obtained data.
FIGS. 1A through 1E show desmoplastic (D)-ECM remodeling by TGFβ-blockage bestows normal (N)-ECM-like phenotypes. Fibroblasts were isolated from pancreatic ductal adenocarcinoma (PDAC) and renal cell carcinoma (RCC) surgical samples and their ECM producing phenotypes were assessed prior to ECM decellularization via fibroblastic extraction. […]

[5] = system: TGFβ levels stored within ECMs; experiment: TGFβ protein levels in 3D unextracted culture lysates by ELISA; type: cell-based, human; details: inhibitor used during D-ECM production; <0.0001
Excerpt: (§4) FIGS. 7A through 7F show characterization of human fibroblastic cells isolated from PDAC and RCC surgical samples. […] Isolated cells were probed for desmoplastic markers α-SMA and palladin while Panc1 (a pancreatic cancer cell line) cells were used as epithelial to mesenchyme […] (EMT) controls known to express both epithelial and mesenchymal markers. Assorted markers are shown in white while counterstained Hoechst identified nuclei are shown in yellow. […] TGFβ inhibition causes disorganization of desmoplastic and ablation of normal ECMs. […] Data were normalized to total protein concentration and to D-ECM readouts; results are expressed as arbitrary units (A.U.). […] All scale bars represent 50 μm.

[6] = system: normal fibroblasts (N-ECM assembly); experiment: N-ECM assembly by normal fibroblasts under TGFβ1-receptor blockage; type: cell-based, human; details: blockage of TGFβ signaling during ECM production
Excerpt: as §3, §4

[7] = molecular target: alpha-v-beta-5 (αvβ5) integrin, human (human) (UniProt P06756); experiment: cell-based or functional assay
Sequence of UniProt P06756 (P06756 31-1048, chain 1 of 2): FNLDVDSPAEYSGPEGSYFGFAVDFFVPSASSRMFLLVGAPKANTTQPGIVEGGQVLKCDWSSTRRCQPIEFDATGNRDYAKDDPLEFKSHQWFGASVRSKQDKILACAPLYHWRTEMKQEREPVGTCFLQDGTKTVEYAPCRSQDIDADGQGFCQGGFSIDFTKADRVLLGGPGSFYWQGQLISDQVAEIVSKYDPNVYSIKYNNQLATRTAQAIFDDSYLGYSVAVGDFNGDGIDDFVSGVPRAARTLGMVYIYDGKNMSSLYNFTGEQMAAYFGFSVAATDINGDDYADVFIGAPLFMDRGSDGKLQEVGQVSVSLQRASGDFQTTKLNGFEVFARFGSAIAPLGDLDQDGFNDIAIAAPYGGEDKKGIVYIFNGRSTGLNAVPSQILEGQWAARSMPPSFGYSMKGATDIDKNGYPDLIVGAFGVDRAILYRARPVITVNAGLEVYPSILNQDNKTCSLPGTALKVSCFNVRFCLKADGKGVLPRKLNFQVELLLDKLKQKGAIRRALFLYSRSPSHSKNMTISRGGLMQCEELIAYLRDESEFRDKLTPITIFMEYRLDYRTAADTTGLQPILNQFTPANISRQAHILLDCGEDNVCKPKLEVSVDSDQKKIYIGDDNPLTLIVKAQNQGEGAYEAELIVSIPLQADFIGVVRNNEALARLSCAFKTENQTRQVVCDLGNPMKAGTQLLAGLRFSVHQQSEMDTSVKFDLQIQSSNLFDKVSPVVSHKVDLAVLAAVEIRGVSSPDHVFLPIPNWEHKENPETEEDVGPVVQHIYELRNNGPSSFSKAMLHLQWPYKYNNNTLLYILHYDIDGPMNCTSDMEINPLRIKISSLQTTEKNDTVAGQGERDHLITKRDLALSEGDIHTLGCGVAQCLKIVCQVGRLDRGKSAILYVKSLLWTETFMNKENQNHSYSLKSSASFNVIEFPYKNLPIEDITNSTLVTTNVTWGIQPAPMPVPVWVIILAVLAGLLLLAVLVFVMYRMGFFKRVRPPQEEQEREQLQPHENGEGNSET
Sequence of UniProt P06756 (P18084 24-799, chain 2 of 2, further chain): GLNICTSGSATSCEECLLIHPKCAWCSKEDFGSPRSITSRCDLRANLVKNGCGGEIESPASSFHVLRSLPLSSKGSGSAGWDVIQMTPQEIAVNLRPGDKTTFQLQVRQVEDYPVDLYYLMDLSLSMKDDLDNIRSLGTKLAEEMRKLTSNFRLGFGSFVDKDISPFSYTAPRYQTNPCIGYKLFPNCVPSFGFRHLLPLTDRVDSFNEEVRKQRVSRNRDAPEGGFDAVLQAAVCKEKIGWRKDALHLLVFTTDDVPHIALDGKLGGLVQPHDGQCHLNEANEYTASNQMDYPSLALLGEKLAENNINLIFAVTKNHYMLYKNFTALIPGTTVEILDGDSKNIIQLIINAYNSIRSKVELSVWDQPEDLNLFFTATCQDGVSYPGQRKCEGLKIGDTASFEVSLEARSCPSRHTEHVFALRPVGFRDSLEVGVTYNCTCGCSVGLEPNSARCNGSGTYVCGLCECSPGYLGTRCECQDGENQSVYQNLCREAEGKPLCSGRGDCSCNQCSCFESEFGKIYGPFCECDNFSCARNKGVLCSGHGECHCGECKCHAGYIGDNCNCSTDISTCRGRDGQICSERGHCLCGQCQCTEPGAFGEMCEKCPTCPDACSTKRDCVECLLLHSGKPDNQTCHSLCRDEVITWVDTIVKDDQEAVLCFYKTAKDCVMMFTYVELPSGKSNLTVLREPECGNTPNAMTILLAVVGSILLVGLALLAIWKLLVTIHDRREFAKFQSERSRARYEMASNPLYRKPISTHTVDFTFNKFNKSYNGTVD

[8] = molecular target: αvβ5 integrin, murine (murine) (UniProt P43406); experiment: cell-based or functional assay
[9] = molecular target: alpha-5-beta-1 (α5β1) integrin, human (human) (UniProt P08648); experiment: cell-based or functional assay
Sequence of UniProt P08648 (P08648 42-1049, chain 1 of 2): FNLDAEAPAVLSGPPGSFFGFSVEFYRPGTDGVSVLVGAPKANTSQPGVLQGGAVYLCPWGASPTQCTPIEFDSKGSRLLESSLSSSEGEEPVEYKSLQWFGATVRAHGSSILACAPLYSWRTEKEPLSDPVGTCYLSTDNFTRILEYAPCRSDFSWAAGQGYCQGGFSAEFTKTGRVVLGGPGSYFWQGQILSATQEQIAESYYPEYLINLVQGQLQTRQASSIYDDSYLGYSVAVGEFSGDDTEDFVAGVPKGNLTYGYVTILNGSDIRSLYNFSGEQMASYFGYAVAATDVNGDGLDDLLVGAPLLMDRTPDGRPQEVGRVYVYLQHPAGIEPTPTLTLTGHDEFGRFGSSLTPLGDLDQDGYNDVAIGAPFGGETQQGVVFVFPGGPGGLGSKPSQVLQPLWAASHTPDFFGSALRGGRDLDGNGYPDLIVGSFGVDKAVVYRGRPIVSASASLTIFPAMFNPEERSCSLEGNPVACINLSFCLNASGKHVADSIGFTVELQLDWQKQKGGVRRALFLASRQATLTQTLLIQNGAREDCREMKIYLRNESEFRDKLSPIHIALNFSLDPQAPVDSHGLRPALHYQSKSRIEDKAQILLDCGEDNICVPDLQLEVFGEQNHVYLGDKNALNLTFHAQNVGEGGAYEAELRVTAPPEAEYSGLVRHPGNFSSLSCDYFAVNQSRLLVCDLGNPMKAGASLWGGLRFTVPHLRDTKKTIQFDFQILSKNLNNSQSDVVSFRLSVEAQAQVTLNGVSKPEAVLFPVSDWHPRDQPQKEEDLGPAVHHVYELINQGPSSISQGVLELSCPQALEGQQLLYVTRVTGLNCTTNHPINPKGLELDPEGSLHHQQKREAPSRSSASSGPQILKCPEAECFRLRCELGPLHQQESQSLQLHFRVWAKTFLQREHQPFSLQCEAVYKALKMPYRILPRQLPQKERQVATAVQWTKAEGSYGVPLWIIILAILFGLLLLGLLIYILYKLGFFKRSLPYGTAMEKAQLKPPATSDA
Sequence of UniProt P08648 (P05556 21-798, chain 2 of 2, further chain): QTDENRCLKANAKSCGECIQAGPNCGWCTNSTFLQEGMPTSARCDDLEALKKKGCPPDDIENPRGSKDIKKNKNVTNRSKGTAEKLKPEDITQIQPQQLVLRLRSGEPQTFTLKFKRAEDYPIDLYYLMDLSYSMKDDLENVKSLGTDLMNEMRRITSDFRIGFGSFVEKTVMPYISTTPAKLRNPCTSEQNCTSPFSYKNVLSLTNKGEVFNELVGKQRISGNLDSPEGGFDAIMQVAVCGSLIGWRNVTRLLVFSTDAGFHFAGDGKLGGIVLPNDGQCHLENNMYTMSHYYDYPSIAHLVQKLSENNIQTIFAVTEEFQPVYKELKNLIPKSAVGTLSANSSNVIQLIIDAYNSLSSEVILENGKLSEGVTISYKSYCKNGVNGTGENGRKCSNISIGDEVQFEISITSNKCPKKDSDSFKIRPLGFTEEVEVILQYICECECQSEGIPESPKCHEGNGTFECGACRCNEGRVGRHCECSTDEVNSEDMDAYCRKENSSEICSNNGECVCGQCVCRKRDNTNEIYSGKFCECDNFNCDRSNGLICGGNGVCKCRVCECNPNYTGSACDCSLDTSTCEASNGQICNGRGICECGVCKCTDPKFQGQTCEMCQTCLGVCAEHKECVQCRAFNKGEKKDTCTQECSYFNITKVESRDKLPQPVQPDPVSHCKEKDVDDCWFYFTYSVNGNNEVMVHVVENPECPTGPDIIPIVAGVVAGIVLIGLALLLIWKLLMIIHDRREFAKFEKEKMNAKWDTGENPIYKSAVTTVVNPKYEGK

[10] = SB-431542 during D-ECM production
[11] = PDAC, naïve cells within D-ECM treated overnight
[12] = PDAC, naïve fibroblasts in D-ECM that was produced in presence of TGFβ1-receptor inhibitor
[13] = RCC, naïve cells within D-ECM treated overnight
[14] = RCC, naïve fibroblasts in D-ECM that was produced in presence of TGFβ1-receptor inhibitor

Q: Which “D-ECM induced myofibroblastic phenotype (α-SMA expression / stress fiber localization), in words” value ([1]; PDAC) does the source give for CC(C)(C)n1nc(-c2ccc(Cl)cc2)c2c(N)ncnc21 [PP2] here?
A: D-ECM-induced phenotype was lost

Q: What about the “D-ECM induced myofibroblastic phenotype (α-SMA expression / stress fiber localization), in words” value ([2]; RCC) of the same molecule?
A: D-ECM-induced phenotype was lost

Q: Which results are given for NC(=O)c1ccc(-c2nc(-c3ccc4c(c3)OCO4)c(-c3ccccn3)[nH]2)cc1 [SB-431542]?
A: fiber alignment (fibers distributed at 15° from the mode angle) [3, 10]: 36%; ECM fiber alignments reduced to ([3]; TGFβ blockage during D-ECM production, n=21, P<0.0001): 47%; fiber alignment (fibers distributed at 15° from the mode angle) [4, 10]: 47%; ECM fiber alignments reduced to ([4]; TGFβ blockage during D-ECM production, n=26, P=0.0028): 51%; reduction of TGFβ levels stored within ECMs [5]: 60%; de novo N-ECM assembly [6]: prevented de novo N-ECM assembly; stress fiber localization of α-SMA relative to the untreated D-ECM ([1]; PDAC, D-ECM produced under TGFβ blockage, re-seeded with naïve fibroblasts): 55%; α-SMA expression, Median [1, 11]: 0.62 a.u.; α-SMA stress fiber localization, Median [1, 11]: 0.96 a.u.; D-ECM induced myofibroblastic phenotype (α-SMA expression / stress fiber localization), in words ([1]; PDAC): comparable; α-SMA expression, Median [1, 12]: 0.73 a.u.; α-SMA stress fiber localization, Median [1, 12]: 0.55 a.u.; α-SMA expression levels relative to untreated conditions ([1]; PDAC, naïve fibroblasts plated in D-ECM in presence of the agent): 62%; myofibroblastic phenotype induced de novo by the extracted ECM, in words ([1]; naïve pancreatic fibroblasts re-seeded in D-ECM produced in presence of SB-431542): comparable phenotypes; stress fiber localization of α-SMA relative to the untreated D-ECM ([2]; RCC, D-ECM produced under TGFβ blockage, re-seeded with naïve fibroblasts): 72%; α-SMA expression, Median [2, 13]: 1.00 a.u.; α-SMA stress fiber localization, Median [2, 13]: 1.03 a.u.; D-ECM induced myofibroblastic phenotype (α-SMA expression / stress fiber localization), in words ([2]; RCC): comparable; α-SMA expression, Median [2, 14]: 0.41 a.u.; α-SMA stress fiber localization, Median [2, 14]: 0.72 a.u.; α-SMA expression levels relative to untreated conditions ([2]; RCC, naïve fibroblasts plated in D-ECM in presence of the agent): 100%; myofibroblastic phenotype induced de novo by the extracted ECM, in words ([2]; naïve renal fibroblasts re-seeded in D-ECM produced in presence of SB-431542): comparable phenotypes

Q: With C[C@@H]1C[C@@H]([C@H](O)CC2CC(=O)NC(=O)C2)C(=O)[C@@H](C)C1 [cycloheximide] as the molecule, how does the “α-SMA protein outcome in naïve fibroblasts re-plated in D-ECM, in words” value ([1]; overnight treatment with protein synthesis inhibitor, model not specified) read?
A: did not influence outcomes

Q: For “ALULA, functional-blocking anti αvβ5 integrin antibody”, which intracellular levels of α5β1 integrin activity, PDAC [7] is on record?
A: 0%

Q: What about the intracellular levels of α5β1 integrin activity, RCC [7] of the same molecule?
A: 60%

Q: What about the α5β1 integrin activity localized away from 3D-adhesions, PDAC (relative to D-ECM, a.u.=1) [7] of the same molecule?
A: 0.32 a.u.

Q: And the α5β1 integrin activity localized away from 3D-adhesions, RCC (relative to D-ECM, a.u.=1) [7]?
A: 0.82 a.u.

Q: What about the α-SMA expression, PDAC, median (normalized to untreated D-ECM) [7] of the same molecule?
A: 0.29 a.u.

Q: What about the α-SMA expression, RCC, median (normalized to untreated D-ECM) [7] of the same molecule?
A: 0.58 a.u.

Q: What about the α-SMA stress fiber localization, PDAC, median (normalized to untreated D-ECM) [7] of the same molecule?
A: 0.54 a.u.

Q: What about the α-SMA stress fiber localization, RCC, median (normalized to untreated D-ECM) [7] of the same molecule?
A: 0.67 a.u.

Q: What about the percentage of FAK-/- murine fibroblasts in mD-ECM undergoing myofibroblastic activation [8] of the same molecule?
A: 14%

Q: What about the percentage of murine cells in mD-ECM with myofibroblast activation under FAK inhibitor PF573,228 [8] of the same molecule?
A: 23%

Q: And the percentage of murine fibroblasts in mD-ECM undergoing myofibroblastic activation [8]?
A: 55%

Q: For “SNAKA51, conformation-dependent anti-active α5 integrin functional antibody”, which α-SMA expression, PDAC, median (normalized to untreated D-ECM) [9] is on record?
A: 0.32 a.u.

Q: What about the α-SMA expression, RCC, median (normalized to untreated D-ECM) [9] of the same molecule?
A: 0.43 a.u.

Q: What about the α-SMA stress fiber localization, PDAC, median (normalized to untreated D-ECM) [9] of the same molecule?
A: 0.56 a.u.

Q: And the α-SMA stress fiber localization, RCC, median (normalized to untreated D-ECM) [9]?
A: 0.93 a.u.

Q: Which results are given for “mAb16, functional blocking anti-α5β1 integrin antibody”?
A: α-SMA expression, PDAC, median (normalized to untreated D-ECM) [9]: 0.71 a.u.; α-SMA expression, RCC, median (normalized to untreated D-ECM) [9]: 0.53 a.u.; α-SMA stress fiber localization under FAK inhibitor PF573,228, PDAC [9]: 49%; α-SMA stress fiber localization under FAK inhibitor PF573,228, RCC [9]: 45%; α-SMA stress fiber localization, PDAC, median (normalized to untreated D-ECM) [9]: 0.77 a.u.; α-SMA stress fiber localization, RCC, median (normalized to untreated D-ECM) [9]: 0.89 a.u.
